Results from patent US20240317686A1, “RORyT MODULATOR, AND PREPARATION METHOD THEREFOR AND APPLICATION THEREOF” (SHANGHAI PHARMACEUTICALS HOLDING CO., LTD., priority 2020, published 2024).

These molecules were tested against T1, RORγt (Homo sapiens, UniProt P51449) (assay: Fluorescence resonance energy transfer (FRET) assay of inhibitory activity on RORγt). Details: RORgt-LBD GST with SRC peptide.
T1 construct: Prepare 4×RORgt-LBD in 1× buffer
T1 sequence (P51449 269-508 limits assumed): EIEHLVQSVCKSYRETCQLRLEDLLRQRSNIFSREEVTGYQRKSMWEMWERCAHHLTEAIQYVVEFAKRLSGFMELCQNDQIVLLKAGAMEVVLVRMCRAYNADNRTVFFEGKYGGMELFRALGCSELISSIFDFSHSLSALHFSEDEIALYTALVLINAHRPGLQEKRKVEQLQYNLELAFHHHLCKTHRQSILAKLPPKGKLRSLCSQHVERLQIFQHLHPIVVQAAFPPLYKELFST
Assay type: biochemical
Method: Fluorescence resonance energy transfer (FRET) experiment was performed to assay the inhibitory activity of the compound of the present invention on RORγt.
1) Preparation of DMSO stock solutions of the compounds: All compounds were dissolved in DMSO to prepare 10 mM stock solutions.
2) Compound storage: After the compound was dissolved in DMSO, the solution can be stored in a desiccator at room temperature for three months. For long-term storage, the solution should be put in a −20° C. refrigerator.
3) Preparation of working solution: • a) Positive control compound AZD0284: Starting from 500 µM, the solution was diluted serially by 3-folds with DMSO to obtain a 10-concentration gradient, each concentration with 3 replicate wells. 2 wells were pipetted. The gradiently diluted compound was diluted in a reaction buffer to obtain a 4× working solution (starting from 40 μM, diluted gradiently by 3-folds) of the positive control compound. • b) Compounds to be tested: Starting from 500 μM, the solution was diluted serially by 3-folds with DMSO to obtain a 10-concentration gradient, each concentration with 3 replicate wells. 2 wells were pipetted. The gradiently diluted compound was diluted in a reaction buffer to obtain a 4× working solution ([…], diluted gradiently by 3-folds) of the compounds to be tested. • c) Prepare a 4× negative control (8% DMSO). • d) Centrifuge the plate at 1000 rpm for 1 min.
1) Prepare 4× serially diluted compounds in 1× buffer.
2) Add 5 μl of the 4× serially diluted compound (prepared in step 1) to a 384 assay plate (784075, Greiner).
3) Prepare 4×RORgt-LBD in 1× buffer.
4) Add 5 μl of the 4×RORgt-LBD (prepared in step 3) to the 384 assay plate (prepared in step 2).
5) Incubate the assay plate for 15 min at room temperature, protected from light.
6) Prepare a 2× mixture of SRC, anti-GST Eu and streptavidin-d2 in 1× […].
7) Add 10 μl of the 2× mixture (prepared in step 6) to the 384 assay plate (prepared in step 4).
8) Centrifuge the 384 assay plates at 1000 g for 1 min.
9) Incubate for 3 h at room temperature, protected from light.
10) Read the plate at wavelengths of 665 nm and 615 nm on an Envision 2104 plate reader.
Relative ratio (RR): Calculate the relative ratio (response value at 665 nm/response value at 615 nm-response value in blank background) of each well.
Inhibition rate %=[1−(fluorescence detection value of the compound−fluorescence detection average of the positive compound)/(fluorescence detection average of the negative control−fluorescence detection average of the positive compound)]×100
Calculate the IC50 and dose-response curve of the compound: The IC50 and dose-response curve of the compound were obtained via Graphpad 8.0 by calculating the inhibition rate of the compound and the log value of the compound concentration.

IC50 [nM]	Structure (SMILES)
1 to 10	CCS(=O)(=O)c1ccc(CC(=O)Nc2ccc(C(=O)C(C)(C)c3cc(C#N)ccn3)nc2)cc1 [Compound I-40, N-(6-(2-(4-cyanopyridin-2-yl)-2-methylpropionyl)pyridin-3-yl)-2-(4-(ethylsulfonyl)phenyl)acetamide]
1 to 10	CCS(=O)(=O)c1ccc(CC(=O)Nc2ccc(C(=O)C(C)(C)c3ncc(F)cc3F)nc2)cc1 [Compound I-41, N-[6-[2-(3,5-difluoro-2-pyridyl)-2-methyl-propionyl]-3-pyridyl]-2-(4-ethylsulfonylphenyl)acetamide]
10 to 50	CCn1cc(C(C)(C)C(=O)c2ccc(NC(=O)Cc3ccc(S(=O)(=O)CC)cc3)cn2)cn1 [Compound I-42, N-(6-(2-(1-ethyl-1H-pyrazol-4-yl)-2-methylpropionyl)pyridin-3-yl)-2-(4-(ethylsulfonyl)phenyl) acetamide]
10 to 50	[2H]C([2H])([2H])n1cc(C(C)(C)C(=O)c2ccc(NC(=O)Cc3ccc(S(=O)(=O)CC)cc3)cn2)cn1 [Compound I-43, 2-(4-(ethylsulfonyl)phenyl)-N-(6-(2-methyl-2-(1-(methyl-D3)-1H-pyrazol-4-yl)propionyl)pyridin-3-yl)acetamide]
1 to 10	CCS(=O)(=O)c1ccc(CC(=O)Nc2ccc(C(=O)C(C)(C)c3ncccc3F)nc2)cc1 [Compound I-44, 2-(4-(ethylsulfonyl)phenyl)-N-(6-(2-(3-fluoropyridin-2-yl)-2-methylpropionyl)pyridin-3-yl)acetamide]
100 to 1000	CCS(=O)(=O)c1ccc(CC(=O)Nc2ccc(C(=O)C3(c4ccccn4)CC3)nc2)cc1 [Compound I-45, 2-(4-(ethylsulfonyl)phenyl)-N-(6-(1-(pyridin-2-yl)cyclopropane-1-carbonyl)pyridin-3-yl)acetamide]
10 to 50	CCS(=O)(=O)c1ccc(CC(=O)Nc2ccc(C(=O)C3(c4ccccn4)CCC3)nc2)cc1 [Compound I-46, 2-(4-(ethylsulfonyl)phenyl)-N-(6-(1-(pyridin-2-yl)cyclobutane-1-carbonyl)pyridin-3-yl)acetamide]
1 to 10	CNS(=O)(=O)c1ccc(CC(=O)Nc2ccc(C(=O)C(C)(C)c3ccc(F)c(Cl)c3)nc2)cc1 [Compound I-47]
50 to 100	CCS(=O)(=O)c1ccc(CC(=O)Nc2ccc(C(=O)C(C)(C)c3ccc(C)nc3)nc2)cc1 [Compound I-48, 2-(4-(ethylsulfonyl)phenyl)-N-(6-(2-methyl-2-(6-methylpyridin-3-yl)propionyl)pyridin-3-yl)acetamide]
50 to 100	CCS(=O)(=O)c1ccc(CC(=O)Nc2ccc(C(=O)C(C)(C)c3ccc(C(F)(F)F)nc3)nc2)cc1 [Compound I-50]
1 to 10	CCS(=O)(=O)c1ccc(CC(=O)Nc2ccc(C(=O)C(C)(C)c3ccnc(C(F)(F)F)c3)nc2)cc1 [Compound I-52]
1 to 10	CCS(=O)(=O)c1ccc(CC(=O)Nc2ccc(C(=O)C3(c4ccccn4)CC(F)(F)C3)nc2)cc1 [Compound I-54, N-(6-(3,3-difluoro-1-(pyridin-2-yl)cyclobutane-1-carbonyl)pyridin-3-yl)-2-(4-(ethylsulfonyl)phenyl)acetamide]
100 to 1000	CCS(=O)(=O)c1ccc(CC(=O)Nc2ccc(C(=O)C(C)(C)c3cnc(C)nc3)nc2)cc1 [Compound I-55]
10 to 50	CCS(=O)(=O)c1ccc(CC(=O)Nc2ccc(C(=O)C(C)(C)c3nc(C)c(C)o3)nc2)cc1 [Compound I-56, N-(6-(2-(4,5-dimethyloxazol-2-yl)-2-methylpropionyl)pyridin-3-yl)-2-(4-(ethylsulfonyl)phenyl) acetamide]
1 to 10	CCS(=O)(=O)c1ccc(CC(=O)Nc2ccc(C(=O)C(C)(C)c3cccc(C)n3)nc2)cc1 [Compound I-57]
1 to 10	CCS(=O)(=O)c1ccc(CC(=O)Nc2ccc(C(=O)C(C)(C)c3cc(Br)ccn3)nc2)cc1 [Compound I-58, N-(6-(2-(4-bromopyridin-2-yl)-2-methylpropionyl)pyridin-3-yl)-2-(4-(ethylsulfonyl)phenyl)acetamide]
10 to 50	CCS(=O)(=O)c1ccc(CC(=O)Nc2ccc(C(=O)C(C)(C)c3ncc(C)cn3)nc2)cc1 [Compound I-59, 2-(4-(ethylsulfonyl)phenyl)-N-(6-(2-methyl-2-(5-methylpyrimidin-2-yl)propionyl)pyridin-3-yl) acetamide]

IC50 [nM]	Structure (SMILES)
100 to 1000	CCS(=O)(=O)c1ccc(CC(=O)Nc2ccc(C(=O)C3(c4cnn(C)c4)CC3)nc2)cc1 [Compound I-60, 2-(4-(ethylsulfonyl)phenyl)-N-(6-(1-(1-methyl-1H-pyrazol-4-yl)cyclopropane-1-carbonyl)pyridin-3-yl)acetamide]
1 to 10	CCS(=O)(=O)c1ccc(CC(=O)Nc2ccc(C(=O)C(C)(C)c3cccc(F)n3)nc2)cc1 [Compound I-61]
50 to 100	CCS(=O)(=O)c1ccc(CC(=O)Nc2ccc(C(=O)C(C)(C)c3nc(C)co3)nc2)cc1 [Compound I-62]
10 to 50	CNS(=O)(=O)c1ccc(CC(=O)Nc2ccc(C(=O)C(C)(C)c3ccccn3)nc2)cc1 [Compound I-63, N-(6-(2-methyl-2-(pyridin-2-yl)propionyl)pyridin-3-yl)-2-(4-(N-methylsulfamoyl)phenyl)acetamide]
> 1000	CN(C)S(=O)(=O)c1ccc(CC(=O)Nc2ccc(C(=O)C(C)(C)c3ccccn3)nc2)cc1 [Compound I-64, 2-(4-(N,N-dimethylsulfamoyl)phenyl)-N-(6-(2-methyl-2-(pyridin-2-yl)propionyl)pyridin-3-yl)acetamide]
1 to 10	CCS(=O)(=O)c1ccc(CC(=O)Nc2ccc(C(=O)C(C)(C)c3cccc(C#N)n3)nc2)cc1 [Compound I-65]
1 to 10	CCS(=O)(=O)c1ccc(CC(=O)Nc2ccc(C(=O)C3(c4ccc(F)cc4)CC(F)(F)C3)nc2)cc1 [Compound I-66]
100 to 1000	CN(C)S(=O)(=O)c1ccc(CC(=O)Nc2ccc(C(=O)C3(c4ccc(F)cc4)CC(F)(F)C3)nc2)cc1 [Compound I-67]
100 to 1000	CCS(=O)(=O)c1ccc(CC(=O)Nc2ccc(C(=O)C3(c4ccc(F)cn4)CC3)nc2)cc1 [Compound I-68, 2-(4-(ethylsulfonyl)phenyl)-N-(6-(1-(5-fluoropyridin-2-yl)cyclopropane-1-carbonyl)pyridin-3-yl)acetamide]
10 to 50	CCC(C(=O)c1ccc(NC(=O)Cc2ccc(S(=O)(=O)CC)cc2)cn1)c1ccccn1 (stereo not drawn) [Compound I-69]
50 to 100	CCS(=O)(=O)c1ccc(CC(=O)Nc2ccc(C(=O)C(C)(C)c3ccccn3)cn2)cc1 [Compound I-71, 2-(4-(ethylsulfonyl)phenyl)-N-(5-(2-methyl-2-(pyridin-2-yl)propionyl)pyridin-2-yl)acetamide]
50 to 100	CCS(=O)(=O)c1ccc(CC(=O)Nc2ccc(C(=O)C(C)(C)c3cn(C)cn3)nc2)cc1 [Compound I-72, 2-(4-(ethylsulfonyl)phenyl)-N-(6-(2-methyl-2-(1-methyl-1H-imidazol-4-yl)propionyl)pyridin-3-yl)acetamide]
10 to 50	CCS(=O)(=O)c1ccc(CC(=O)Nc2ccc(C(=O)C(C)c3ccccn3)nc2)cc1 (stereo not drawn) [Compound I-73, 2-(4-(ethylsulfonyl)phenyl)-N-(6-(2-(pyridin-2-yl)propanoyl)pyridin-3-yl)acetamide]
10 to 50	CCS(=O)(=O)c1ccc(CC(=O)Nc2ccc(C(=O)C(c3ccccn3)C(C)C)nc2)cc1 (stereo not drawn) [Compound I-74]
1 to 10	CNS(=O)(=O)c1ccc(CC(=O)Nc2ccc(C(=O)C3(c4ccc(F)cc4)CC(F)(F)C3)nc2)cc1 [Compound I-75, N-(6-(3,3-difluoro-1-(4-fluorophenyl)cyclobutane-1-carbonyl)pyridin-3-yl)-2-(4-(N-methylsulfamoyl)phenyl)acetamide]
1 to 10	CCS(=O)(=O)c1ccc(CC(=O)Nc2ccc(C(=O)C(C)(C)c3cccc(C(F)(F)F)n3)nc2)cc1 [Compound I-76]
